This is an account of results in patent US20210386068A1, “COMPOSITIONS COMPRISING PYRIDINE CARBOXYLATE HERBICIDES AND VERY LONG CHAIN FATTY ACID (VLCFA) SYNTHESIS INHIBITOR HERBICIDES” (priority 2018, published 2021).

Common to all, as to format: in vivo
The subject of data set [1] is Brassica napus (winter rape, BRSNW). Kind of data set: Greenhouse postemergence herbicidal effect, visual injury 20-22 d after spraying, winter rape (BRSNW). The following applies: BRSNW. The text has this: (§1) Seeds of the desired test plant species were planted in a 90:10% v/v (volume/volume) mixture of PRO-MIX® BX (Premier Tech Horticulture, Quakertown, Pa., USA) and PROFILE® GREENS GRADE™ (Profile Products LLC, Buffalo Grove, Ill., USA) planting mixture, which typically has a pH of 5.2 to 6.2 and an organic matter content of at least 50 percent, in plastic pots with a surface area of 103.2 square centimeters (cm^2). In some aspects, to ensure good germination and healthy plants, a fungicide treatment and/or other chemical or physical treatment was applied. The plants were grown for 7-36 days (d) in a greenhouse with an approximate 14-hour (h) photoperiod which was maintained at about 23° C. during the day and 22° C. during the night. Nutrients and water were added on a regular basis and supplemental lighting was provided with overhead metal halide 1000-Watt lamps as necessary. The plants were employed for testing when they reached the second or third true leaf stage.
(§2) Emulsifiable concentrates of each of each pyridine carboxylate herbicide (Compound A or Compound B) were prepared at 100 grams acid equivalent per liter (g ae/L). The emulsifiable concentrates also included a safener, cloquintocet-mexyl, at 120 grams active ingredient per liter (g ai/L). An aliquot of each emulsifiable concentrate was placed in a 25 mL glass vial and diluted with an aqueous mixture of 1.25% (v/v) ACTIROB® B esterified rapeseed oil (Bayer Crop Science, Research Triangle Park, N.C., USA) or MSO® Concentrate with LECI-TECH® methylated soybean oil (Loveland Products, Loveland, Colo., USA) to obtain concentrated stock solutions at the highest application rate for each herbicide, based upon a 12 milliliter (mL) application volume at a rate of 187 liters per hectare (L/ha). The concentrated stock solutions were further diluted with an aqueous mixture of 1.25% v/v ACTIROB® B or MSO® Concentrate with LECI-TECH® to obtain stock solutions at reduced application rates for each herbicide. Spray solutions of the herbicide combinations (Compound A or Compound B plus VLCFA synthesis inhibitor herbicide) were prepared by adding weighed amounts or aliquots of the VLCFA synthesis inhibitor herbicide to the stock solutions of Compound A or Compound B to form 12-mL spray solutions in two-way combinations.
(§3) The spray solutions were applied to the plant material with an overhead Mandel track sprayer equipped with 8002E nozzles calibrated to deliver 187 L/ha over an application area of 0.503 square meters (m^2) at a spray height of 18 inches ([…] (cm)) above the average plant canopy. Control plants were sprayed in the same manner with the solvent blank. All pyridine carboxylate herbicide (component a) application rates are given as “g ae/ha” and all VLCFA synthesis inhibitor herbicide (component b) application rates are given as “g ai/ha.”
(§4) The treated plants and control plants were placed in a greenhouse as described above and watered by sub-irrigation to prevent wash-off of the test compounds. After 20-22 d, the condition of the test plants as compared with that of the control plants was determined visually and scored on a scale of 0 to 100 percent where 0 corresponds to no injury and 100 corresponds to complete kill.

In data set [2] the test system is Polygonum convolvulus (wild buckwheat, POLCO). In words: Greenhouse postemergence herbicidal effect, visual injury 20-22 d after spraying, wild buckwheat (POLCO). The following applies: POLCO.
From the text: as §1, §2, §3, §4

The test system of data set [3] is Sinapis arvensis (wild mustard, SINAR). Kind of data set: Greenhouse postemergence herbicidal effect, visual injury 20-22 d after spraying, wild mustard (SINAR). The following applies: SINAR.
From the text: as §1, §2, §3, §4

Data set [4] concerns Salsola kali (Russian thistle, SASKR). Kind of data set: Greenhouse postemergence herbicidal effect, visual injury 20-22 d after spraying, Russian thistle (SASKR). The conditions noted are these: SASKR.
From the text: as §1, §2, §3, §4

Data set [5] has as its system Kochia scoparia (kochia, KCHSC). In words: Greenhouse postemergence herbicidal effect, visual injury 20-22 d after spraying, kochia (KCHSC). The conditions noted are these: KCHSC.
From the text: as §1, §2, §3, §4

The subject of data set [6] is Chenopodium album L. (common lambsquarters, CHEAL). Kind of data set: Greenhouse postemergence herbicidal effect, visual injury 20-22 d after spraying, common lambsquarters (CHEAL).
From the text: as §1, §2, §3, §4

The subject of data set [7] is Amaranthus retroflexus (pigweed, AMARE). In words: Greenhouse postemergence herbicidal effect, visual injury 20-22 d after spraying, pigweed (AMARE).
From the text: as §1, §2, §3, §4

Data set [8] relates to Matricaria chamomilla (wild chamomile, MATCH). Kind of data set: Greenhouse postemergence herbicidal effect, visual injury 20-22 d after spraying, wild chamomile (MATCH). The following applies: MATCH.
From the text: as §1, §2, §3, §4

Data set [9] has as its system Cirsium arvense (Canadian thistle, CIRAR). In words: Greenhouse postemergence herbicidal effect, visual injury 20-22 d after spraying, Canadian thistle (CIRAR). The conditions noted are these: CIRAR.
From the text: as §1, §2, §3, §4

Data set [10] relates to Triticum aestivum (spring wheat, TRZAS). Kind of data set: Greenhouse postemergence crop phytotoxicity, visual injury 20-22 d after spraying, spring wheat (TRZAS). The conditions noted are these: TRZAS.
From the text: as §1, §2, §3, §4

The test system of data set [11] is Hordeum vulgare (spring barley, HORVS). In words: Greenhouse postemergence crop phytotoxicity, visual injury 20-22 d after spraying, spring barley (HORVS). The following applies: HORVS.
From the text: as §1, §2, §3, §4

Data set [12] concerns Brassica napus (spring rape, BRSNN). In words: Greenhouse postemergence herbicidal effect, visual injury 20-22 d after spraying, spring rape (BRSNN).
From the text: as §1, §2, §3, §4

Regarding S-Metolachlor, the “% visual injury Obs” value in data set [1] (S-Metolachlor 500 g/ha alone), in [2] (S-Metolachlor 500 g/ha alone), in [3] (S-Metolachlor 500 g/ha alone), in [4] (S-Metolachlor 500 g/ha alone), in [5] (S-Metolachlor 500 g/ha alone) and in data set [6] (S-Metolachlor 500 g/ha alone) was 0% each time. In addition, the “% visual injury Obs” value in data set [7] (S-Metolachlor 500 g/ha alone), in data set [8] (S-Metolachlor 500 g/ha alone), in [9] (S-Metolachlor 500 g/ha alone), in data set [10] (S-Metolachlor 500 g/ha alone) and in data set [11] (S-Metolachlor 500 g/ha alone) was 0% throughout.

As for `CCN(C(=O)n1nnn(-c2ccccc2Cl)c1=O)C1CCCCC1` [Fentrazamide, 4-(2-chlorophenyl)-N-cyclohexyl-N-ethyl-4,5-dihydro-5-oxo-1H-tetrazole-1-carboxamide], the “% visual injury Obs” value turned out to be 0% in [1] (Fentrazamide 200 g/ha alone); 5% in [2] (Fentrazamide 200 g/ha alone); 0% in data set [3] (Fentrazamide 200 g/ha alone); 0% in data set [4] (Fentrazamide 200 g/ha alone); 0% in data set [5] (Fentrazamide 200 g/ha alone); 0% in data set [6] (Fentrazamide 200 g/ha alone). In addition, the “% visual injury Obs” value in data set [7] (Fentrazamide 200 g/ha alone), in data set [8] (Fentrazamide 200 g/ha alone), in data set [9] (Fentrazamide 200 g/ha alone), in data set [10] (Fentrazamide 200 g/ha alone) and in data set [11] (Fentrazamide 200 g/ha alone) was 0% throughout.

For the compound `CCOCCN(C(=O)CCl)C(=C(C)C)c1ccccc1` [Pethoxamid, 2-chloro-N-(2-ethoxyethyl)-N-(2-methyl-1-phenyl-1-propen-1-yl)acetamide], the “% visual injury Obs” value in data set [1] (Pethoxamid 600 g/ha alone), in [2] (Pethoxamid 600 g/ha alone), in [3] (Pethoxamid 600 g/ha alone), in data set [4] (Pethoxamid 600 g/ha alone), in data set [5] (Pethoxamid 600 g/ha alone) and in data set [6] (Pethoxamid 600 g/ha alone) was 0% each time. In addition, the “% visual injury Obs” value in data set [7] (Pethoxamid 600 g/ha alone), in data set [8] (Pethoxamid 600 g/ha alone), in [9] (Pethoxamid 600 g/ha alone), in [10] (Pethoxamid 600 g/ha alone) and in data set [11] (Pethoxamid 600 g/ha alone) was 0% each time.

Consider `Cn1nc(C(F)(F)F)c(CS(=O)(=O)C2=NOC(C)(C)C2)c1OC(F)F` [Pyroxasulfone, 3-[[[5-(difluoromethoxy)-1-methyl-3-(trifluoromethyl)-1H-pyrazol-4-yl]methyl]sulfonyl]-4,5-dihydro-5,5-dimethylisoxazole], for which the “% visual injury” value in data set [1] (Pyroxasulfone 100 g/ha alone) was 5%; in data set [2] (Pyroxasulfone 100 g/ha alone), 0%; in data set [3] (Pyroxasulfone 100 g/ha alone) it was 28%; in data set [4] (Pyroxasulfone 100 g/ha alone), 10%; in data set [5] (Pyroxasulfone 100 g/ha alone) it was 0%; in data set [6] (Pyroxasulfone 100 g/ha alone), 0%. The “% visual injury” value in data set [7] (Pyroxasulfone 100 g/ha alone) worked out at 5%; in [8] (Pyroxasulfone 100 g/ha alone), 0%; in data set [9] (Pyroxasulfone 100 g/ha alone), 0%.

In the case of `CN(C(=O)COc1nc2ccccc2s1)c1ccccc1` [Mefenacet, 2-(2-benzothiazolyloxy)-N-methyl-N-phenylacetamide], the “% visual injury Obs” value in data set [2] (Mefenacet 50 g/ha alone), in data set [3] (Mefenacet 50 g/ha alone), in data set [4] (Mefenacet 50 g/ha alone), in data set [5] (Mefenacet 50 g/ha alone), in data set [6] (Mefenacet 50 g/ha alone) and in data set [8] (Mefenacet 50 g/ha alone) was 0% in each case. For the same compound, the “% visual injury Obs” value in data set [12] (Mefenacet 50 g/ha alone) came out at 5%.

With `COC[C@H](C)N(C(=O)CCl)c1c(C)csc1C` [Dimethenamid-P, (S)-2-chloro-N-(2,4-dimethyl-3-thienyl)-N-(2-methoxy-1-methyl-ethyl)acetamide], the “% visual injury Obs” value in data set [2] (Dimethenamid-P 560 g/ha alone) is given as 0%; in [3] (Dimethenamid-P 560 g/ha alone) it was 0%; in [4] (Dimethenamid-P 560 g/ha alone), 0%; in [5] (Dimethenamid-P 560 g/ha alone), 0%; in data set [6] (Dimethenamid-P 560 g/ha alone), 0%; in data set [7] (Dimethenamid-P 560 g/ha alone), 10%. Further, the “% visual injury Obs” value in data set [8] (Dimethenamid-P 560 g/ha alone), in [9] (Dimethenamid-P 560 g/ha alone) and in data set [12] (Dimethenamid-P 560 g/ha alone) was 0% each time.

`CCN(CC)C(=O)n1cnc(S(=O)(=O)c2c(C)cc(C)cc2C)n1` [Cafenstrole, N,N-diethyl-3-[(2,4,6-trimethylphenyl)sulfonyl]-1H-1,2,4-triazole-1-carboxamide]: the “% visual injury Obs” value in data set [2] (Cafenstrole 52.5 g/ha alone) stood at 5%; in data set [3] (Cafenstrole 52.5 g/ha alone), 0%; in data set [4] (Cafenstrole 52.5 g/ha alone), 0%; in data set [5] (Cafenstrole 52.5 g/ha alone), 5%; in data set [6] (Cafenstrole 52.5 g/ha alone), 0%; in data set [8] (Cafenstrole 52.5 g/ha alone), 5%. The “% visual injury Obs” value is 0% in [10] (Cafenstrole 52.5 g/ha alone), 0% in data set [11] (Cafenstrole 52.5 g/ha alone) and 5% in data set [12] (Cafenstrole 52.5 g/ha alone).

For the compound `CCCCOCN(C(=O)CCl)c1c(CC)cccc1CC` [Butachlor, N-(butoxymethyl)-2-chloro-N-(2,6-diethylphenyl) acetamide], the “% visual injury Obs” value in data set [1] (Butachlor 450 g/ha alone), in data set [2] (Butachlor 450 g/ha alone), in data set [3] (Butachlor 450 g/ha alone), in data set [4] (Butachlor 450 g/ha alone), in data set [5] (Butachlor 450 g/ha alone) and in data set [6] (Butachlor 450 g/ha alone) was 0% in each case. The “% visual injury Obs” value in [7] (Butachlor 450 g/ha alone) was 0%; in [8] (Butachlor 450 g/ha alone) it was 5%; in data set [9] (Butachlor 450 g/ha alone) it was 0%.
